Read-outs that look alike come from different tables or passages of the source.

Assay [1] deals with T1, βA(1-40) amyloid aggregates (Homo sapiens, UniProt P05067).
T1 construct: lyophilized β(1-40) protein powder (which may be purchased from BACHEM); purchased BACHEM
The experiment in a line: Competition assay with Thioflavin T (ThT) for binding to β(1-40) amyloid aggregates, fluorescence 96-well plate. The source says: Amyloid aggregates containing β(1-40) protein can also be made by methods well known to those skilled in the art. See, for example, Burdick D., Soreghan B., Kwon M., Kosmoski J., Knauer M., Henschen A., Yates J., Cotman C., and Glabe C. Assembly and aggregation properties of synthetic Alzheimer's A4/β amyloid peptide analogs. J. Biol. Chem., 267:546-554 (1992), which is hereby incorporated by reference. Briefly, lyophilized β(1-40) protein powder (which may be purchased from BACHEM) was dissolved at 10 mg/mL in hexafluoro-2-propanol and subsequently diluted to 500 μg/mL in 25 mM sodium phosphate buffer, pH 6 to induce the α-helix to β-sheet transition resulting in aggregate formation.
(§1) The ability of compounds of Formula I to compete with Thioflavin T (ThT) for binding to amyloid aggregates was measured using fluorescence in a 96-well fluorescence plate assay. As a compromise between sensitivity and signal and to facilitate comparisons between different amyloid fibrils, ThT is present at a concentration equal to the Kmapp of the particular amyloid fibril type and fibril concentrations yielding a similar fluorescence intensity are used. Insulin: 0.5 μM ThT, 2 μg per well. β(1-40): 20 μM ThT, 5 μg/well. All solutions are in 25 mM sodium phosphate buffer, pH 6.0, and the assay is performed at room temperature.
Using a multichannel pipettor, 100 μL of dilutions of the compound to be tested (0.001-30 μM final concentration in 3-fold steps) are placed in the bottom of Corning U-well polystyrene plates (Corning Company, Corning, N.Y.). 50 μL of ThT are then added to each well. The amyloid fibrils are then added to each well in a volume of 100 μL rapidly to mix the well contents. The plates are read within 5 to 30 minutes in a Millipore Cytofluor 2350 96-well fluorescence plate reader using an excitation filter of 440 nm (20 nm bandpass) and an emission filter of 485 nm (20 nm bandpass). ThT dye blanks were used to correct for the minimal fluorescence background which are subtracted from all data.
(§2) Results are expressed as % maximal fluorescence (no competing compound). […]

Assay [2] addresses Insulin amyloid aggregates. The experiment in a line: Competition assay with Thioflavin T (ThT) for binding to insulin amyloid aggregates, fluorescence 96-well plate. The settings on record: 0.5 μM ThT, 2 μg per well fibrils, 25 mM sodium phosphate pH 6.0, room temperature. The protocol: Burke M. J. and Rougevie M. A., Cross-β Protein Structures. I. Insulin Fibrils. […] Briefly, lyophilized insulin protein powder dissolved at 10 mg/mL in 50 mM HCl was alternately heated to 95° C. and frozen in dry ice to form amyloid aggregates.
as §1
Using a multichannel pipettor, 100 μL of dilutions of the compound to be tested (0.001-30 μM final concentration in 3-fold steps) are placed in the bottom of Corning U-well polystyrene plates (Corning Company, Corning, N.Y.). 50 μL of ThT are then added to each well. The amyloid fibrils are then added to each well in a volume of 100 μL rapidly to mix the well contents. […] ThT dye blanks were used to correct for the minimal fluorescence background which are subtracted from all data.
as §2

Setting [3] is: 20 μM ThT, 5 μg/well fibrils, 25 mM sodium phosphate pH 6.0, room temperature, read-out: βA(1-40), IC50.

T1 sequence (P05067 672-711 limits assumed): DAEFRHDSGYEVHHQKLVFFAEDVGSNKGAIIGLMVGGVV

On to `CN(C)c1ccc(/C=C/c2sc3ccc(Cl)cc3[n+]2C)cc1` [Example 13, (E)-5-Chloro-2-[2-(4-dimethylaminophenyl)vinyl]-3-methylbenzothiazol-3-ium iodide], for which the figures for the IC50 in assay [1] (setting [3]) and in assay [2] were 430 nM and 5.2 nM, respectively.
In the case of `CCCC[n+]1c(/C=C/c2ccc(N(C)C)cc2)sc2ccccc21` [Example 11, (E)-2-[2-(4-Dimethylaminophenyl)vinyl]-3-butylbenzothiazol-3-ium iodide], the IC50 came to 160 nM in assay [1] (setting [3]) and 27 nM in assay [2].
As for `CN(C)c1ccc(/C=C/c2[s+]c3ccc4ccccc4c3n2C)cc1` [Example 8, (E)-2-[2-(4-Dimethylaminophenyl)vinyl]-1-methylnaphtho[1,2-d]thiazol-3-ium iodide], the IC50 in assay [1] (setting [3]) was 210 nM; in assay [2], 53 nM.
For `CN(C)c1ccc(/C=C/c2sc3ccccc3[n+]2CCCCCOc2ccccc2)cc1` [Example 37, (E)-2-[2-(4-Dimethylaminophenyl)vinyl]-3-(5-phenoxypentyl)benzothiazol-3-ium iodide] the same measures were 170 nM and 80 nM.
Regarding `CCn1c(/C=C/c2ccc(N(C)C)cc2)[s+]c2ccc3ccccc3c21` [Example 22, (E)-2-[2-(4-Dimethylaminophenyl)vinyl]-1-ethylnaphtho[1,2-d]thiazol-3-ium toluene-4-sulfonate], the IC50 in assay [1] (setting [3]) came to 210 nM; in assay [2], 41 nM.
`COc1ccc2nc(/N=N/c3ccc(N(C)C)cc3)sc2c1` [Example 49, 2-[[4-(Dimethylamino)phenyl]azo]-6-methoxybenzothiazole]: the IC50 in assay [1] (setting [3]) amounted to 3200 nM; in assay [2], 700 nM.
For the compound `CN(C)c1ccc(/C=C/c2sc3cc([N+](=O)[O-])ccc3[n+]2C)cc1` [Example 21, (E)-2-[2-(4-Dimethylaminophenyl)vinyl]-3-methyl-6-nitrobenzothiazol-3-ium toluene-4-sulfonate], the IC50 in assay [1] (setting [3]) is 1000 nM; in assay [2] it was 12 nM.
Turning to `CCCCCCC[n+]1c(/C=C/c2ccc(N3CCCC3)cc2)sc2ccccc21` [Example 46, (E)-3-Heptyl-2-[2-[(4-pyrrolidin-1-yl)phenyl]vinyl]benzothiazol-3-ium iodide], the values for the IC50 in assay [1] (setting [3]) and in assay [2] were 160 nM and 42 nM, respectively.
Consider `CN(C)c1ccc(/C=C/c2sc3ccccc3[n+]2CCC2CCCCC2)cc1` [Example 38, (E)-3-(2-Cyclohexylethyl)-2-[2-(4-dimethylaminophenyl)vinyl]benzothiazol-3-ium iodide], for which the IC50 in assay [1] (setting [3]) is 120 nM; in assay [2] it was 52 nM.
In the case of `CC[n+]1c(/C=C/c2ccc(N(C)C)cc2)sc2ccccc21` [Example 7, (E)-2-[2-(4-Dimethylaminophenyl)vinyl]-3-ethylbenzothiazol-3-ium iodide], the results for the IC50 in assay [1] (setting [3]) and in assay [2] were 400 nM and 6 nM, respectively.
The like results for `CN(C)c1ccc(N=Nc2sc3ccccc3[n+]2C)cc1` [Example 54, 2-[[4-(Dimethylamino)phenyl]azo]-3-methylbenzothiazolium methylsulfate] were, in that order, 1300 nM and 60 nM.
As to `CN(C)c1ccc(/N=N/c2nc3ccc(Cl)cc3s2)cc1` [Example 50, 6-Chloro-2-[[4-(dimethylamino)phenyl]azo]benzothiazole], the IC50 in assay [1] (setting [3]) and in assay [2] was 1300 nM throughout.
`CCCCCCC[n+]1c(/C=C/c2ccc(N(CC)CC)cc2)sc2ccccc21` [Example 44, (E)-2-[2-(4-Diethylaminophenyl)vinyl]-3-heptylbenzothiazol-3-ium iodide]: the values for the IC50 in assay [1] (setting [3]) and in assay [2] were 140 nM and 120 nM, respectively.
With `CN(C)c1ccc(/C=C/c2sc3ccc4ccccc4c3[n+]2C)c2ccccc12` [Example 42, (E)-2-[2-(4-Dimethylaminonaphthalen-1-yl)vinyl]-1-methylnaphtho[1,2-d]thiazol-1-ium toluene-4-sulfonate], the IC50 in assay [1] (setting [3]) came out at 250 nM; in assay [2], 42 nM.
Take `CN(C)c1ccc(/C=C/c2nc3cc(Cl)ccc3s2)cc1` [Example 1, (E)-{4-[2-(5-Chlorobenzothiazol-2-yl)vinyl]phenyl}dimethylamine]: the IC50 in assay [1] (setting [3]) was more than 100000 nM; in assay [2] it was 100000 nM.
Regarding `Cc1ccc2c(c1)sc(/C=C/c1ccc(N(C)C)cc1)[n+]2C` [Example 17, (E)-2-[2-(4-Dimethylaminophenyl)vinyl]-3,6-dimethylbenzothiazol-3-ium iodide], the IC50 in assay [1] (setting [3]) worked out at 180 nM; in assay [2], 6 nM.
For `CN(C)c1ccc(/C=C/c2sc3c4ccccc4ccc3[n+]2C)cc1` [Example 24, (E)-2-[2-(4-Dimethylaminophenyl)vinyl]-3-methylnaphtho[2,1-d]thiazol-3-ium iodide] the same measures were 210 nM and 41 nM.
On to `CCCCCCC[n+]1c(/C=C/c2ccc(N(CCCC)CCCC)cc2)sc2ccccc21` [Example 45, (E)-2-[2-(4-Dibutylaminophenyl)vinyl]-3-heptylbenzothiazol-3-ium iodide], for which the IC50 came to 600 nM in assay [1] (setting [3]) and 90 nM in assay [2].
`COc1ccc2c(c1)sc(N=Nc1ccc(N(C)C)cc1)[n+]2C` [Example 53, 2-[[4-(Dimethylamino)phenyl]azo]-6-methoxy-3-methylbenzothiazol-3-ium methylsulfate]: the IC50 in assay [1] (setting [3]) stood at 410 nM; in assay [2], 10 nM.
For `CN(C)c1ccc(/C=C/c2sc3ccccc3[n+]2CCCC(c2ccccc2)c2ccccc2)cc1` [Example 33, (E)-2-[2-(4-Dimethylaminophenyl)vinyl]-3-(4,4-diphenylbutyl)benzothiazol-3-ium iodide], the IC50 in assay [1] (setting [3]) turned out to be 460 nM; in assay [2] it was 210 nM.
Consider `CN(C)c1ccc(/C=C/c2sc3ccccc3[n+]2Cc2cccc(Oc3ccccc3)c2)cc1` [Example 30, (E)-2-[2-(4-Dimethylaminophenyl)vinyl]-3-(3-phenoxybenzyl)benzothiazol-3-ium bromide], for which the IC50 stood at 120 nM in assay [1] and 180 nM in assay [2].

Usually IC50 stands for the concentration that inhibits the measured activity by half.
